# Experimental data: article PMC8120183, “Cardamonin inhibits the progression of oesophageal cancer by inhibiting the PI3K/AKT signalling pathway” (Journal of Cancer, 2021)
# What was measured:
# [1] = system: human normal oesophageal cells (HET-1A); assay: MTT assay, IC50 in normal cells; format: cell-based; settings: 24 h and 48 h
# Description: EC9706 and TE10 oesophageal cancer cells in the logarithmic growth phase were harvested and inoculated into 96-well plates at a density of 3000 cells/well. The cells were cultured in an incubator for 12 h and then treated with different concentrations of CAR and DMSO. The NC group was also set up. After incubation for 24 h or 48 h, 10 µL of MTT solution (5 mg/ml) was added to each well. The supernatant was aspirated, and 100 µL of DMSO was added to each well. The absorbance at a wavelength of 490 nm was measured using a microplate reader.
# Supplementary Figure 1 (A -D) EC9706 and TE10 cells were treated with different concentrations of CAR or DMSO, and cell viability and the IC50 at 24 h and 48 h were examined by MTT assay. (E-H) HET-1A and GES-1 cells were treated with different […]
# examined by MTT assay. (I-J) EC9706 cells were incubated with CAR or the caspase inhibitor Z-VAD- FMK or co-incubated, and mitochondrial apoptosis pathway- related proteins were detected by Western blot. […]
# reverse the expression of Bcl2, Bax, Bad, caspase- 3, and cleaved caspase- 3. (K and L) The apoptosis of EC9706 cells after applying the caspase inhibitor Z-VAD- FMK was detected by […]
# (1 picture or pasted object on this page, not shown here)
# [2] = system: oesophageal cancer cell lines EC9706 and TE10; assay: Colony formation assay; format: cell-based, human; settings: two weeks culture
# Description: Oesophageal cancer cells were inoculated into 6-well plates at a density of 8×10^2 cells/well and treated with different concentrations of CAR. The cells were continuously cultured for two weeks until colonies visible to the naked eye had formed. Then, the supernatant was discarded, and crystal violet staining solution was added for 10 min. The cells were dried and photographed, and the colony formation rate was calculated.
# [3] = system: PI3K/AKT signalling pathway in EC9706 cells; assay: Western blot, PI3K/AKT signalling pathway; format: cell-based, human; settings: EC9706 cells, with increasing CAR concentrations
# Description: Oesophageal cancer cells were inoculated into a 6-well plate (5×10^5 cells/well). Cells were treated with different concentrations of CAR and then incubated for an additional 48 h. The cells were lysed using radio-immunoprecipitation assay (RIPA) buffer. The protein concentration was determined using a BCA kit. Proteins were separated by 8-12% sodium dodecyl sulfate-polyacrylamide gel electrophoresis (SDS-PAGE) and then transferred to a polyvinylidene fluoride (PVDF) membrane. The membrane was blocked with 5% nonfat milk for 1 h and then incubated with primary antibodies at 4 °C overnight. The membrane was then incubated with secondary antibodies for 1 h at room temperature. Finally, the membrane was imaged using a chemiluminescence imaging analyser. The greyscale value of each target protein band was analysed using the software provided with the analyser.
# [4] = system: EC9706 and TE10 oesophageal cancer cells; assay: Hoechst 33258 staining, apoptosis; format: cell-based, human; settings: 48 h, compared with control group
# Description: Cells were seeded into 24-well plates (3×10^4 cells/well). The cells were treated with different concentrations of CAR and then incubated for 48 h, followed by fixation with 4% paraformaldehyde for 30 min and one wash with PBS. The cells were stained with Hoechst 33258 (50 ng/ml) for 30 min. Apoptotic cells were observed using a fluorescence microscope (apoptotic cells were characterized by dense chromatin), and five randomly selected fields were used for cell counting.
# [5] = system: EC9706 and TE10 oesophageal cancer cells; assay: Wound healing assay; format: cell-based, human; settings: within 24 h
# Description: Oesophageal cancer cells were seeded into 6-well plates (5×10^5 cells/well) and then linearly scratched with a 10-μL pipette tip. After treatment for 24 h with different concentrations of CAR, cell migration was observed using an inverted microscope.
# [6] = system: PCNA, p-PI3K, p-AKT, Bcl2, vimentin; assay: Immunohistochemistry of xenograft tumour tissue; format: in vivo, nude mice; settings: with increasing CAR concentrations
# Description: A suspension of EC9706 cells (2×10^7 cells/ml) was injected into the middle of and posterior to the armpit of 4- to 6-week-old male nude mice. One week after inoculation, a soybean-sized subcutaneous mass appeared in the armpits of the mice. Then, different doses of CAR (5, 15, or 25 mg/kg) or sodium carboxymethyl cellulose (CMC), which served as a control, were administered by gavage once every three days. The body weights of the mice and tumour size were measured at the same time. Mice were euthanized 26 days after drug administration. Immunohistochemistry (IHC) was used to stain the tumours, and stomach tissue was stained with haematoxylin-eosin (HE). Tumour tissues were fixed with 4% paraformaldehyde and embedded in paraffin. Paraffin-embedded tissue blocks were cut into slices with a thickness of 3-5 mm. Tumour sections were immunohistochemically stained with PCNA (1:100), Bcl-2 (1:100), vimentin (1:100), phosphorylated Akt (1:100), and phosphorylated PI3K (1:100) antibodies according to the steps of the immunohistochemistry kit. For HE staining, tissues were sectioned after deparaffinization, stained with haematoxylin and eosin, and mounted on slides with neutral gum.
# [7] = Body weight of xenograft mice; format: in vivo, nude mice; settings: 5, 15 or 25 mg/kg by gavage, compared with control group
# Description: (§1) A suspension of EC9706 cells (2×10^7 cells/ml) was injected into the middle of and posterior to the armpit of 4- to 6-week-old male nude mice. One week after inoculation, a soybean-sized subcutaneous mass appeared in the armpits of the mice. Then, different doses of CAR (5, 15, or 25 mg/kg) or sodium carboxymethyl cellulose (CMC), which served as a control, were administered by gavage once every three days. The body weights of the mice and tumour size were measured at the same time. Mice were euthanized 26 days after drug administration. Immunohistochemistry (IHC) was used to stain the tumours, and stomach tissue was stained with haematoxylin-eosin (HE).
# [8] = Blood routine related indexes; format: in vivo, nude mice; settings: Mean±SD (n=3)
# Description: as §1
# [9] = Serum ALT, AST and CR levels; format: in vivo, nude mice; settings: mean±SD (n=3)
# Description: as §1
# [10] = 5 mg/kg by gavage once every three days
# [11] = 15 mg/kg by gavage once every three days
# [12] = 25 mg/kg by gavage once every three days
smiles,measurement,setting,value
"COc1cc(O)cc(O)c1C(=O)/C=C/c1ccccc1 [CAR, Cardamonin]",IC50 in normal cells compared with oesophageal cancer cells,[1],higher IC50 values
same,colony formation,[2],significant inhibitory effect on the colony formation of oesophageal cancer cells in a concentration-dependent manner
same,protein levels of p-PI3K and p-AKT,[3],decreased significantly
same,number of apoptotic cells,[4],gradually increased with increasing drug concentrations
same,healing rate,[5],gradually decreased with increases in the CAR concentration
same,"expression of PCNA, p-PI3K, p-AKT, Bcl2 and vimentin in tumour",[6],"the expression levels of PCNA, p-PI3K, p-AKT, Bcl2, and vimentin were downregulated"
same,weight of mice,[7],did not significantly change
same,Gran,[8]; [10],25.43±2.58%
same,HCT,[8]; [10],39.87±7.80%
same,HGB,[8]; [10],131.33 ± 6.51 g/L
same,LYM,[8]; [10],70.80±4.07%
same,MCH,[8]; [10],20.07 ± 0.93 pg
same,MCHC,[8]; [10],348.00 ± 12.77 g/L
same,MCV,[8]; [10],57.63 ± 1.50 fL
same,Mon,[8]; [10],3.77±1.95%
same,PLT,[8]; [10],1009±44.24 ×10^9/L
same,RBC,[8]; [10],6.91±1.49 ×10^12/L
same,WBC,[8]; [10],3.90±0.17 ×10^9/L
same,Gran,[8]; [11],24.53±2.28%
same,HCT,[8]; [11],35.77±1.86%
same,HGB,[8]; [11],137.00 ± 19.00 g/L
same,LYM,[8]; [11],72.30±3.15%
same,MCH,[8]; [11],19.40 ± 2.07 pg
same,MCHC,[8]; [11],332.33 ± 19.09 g/L
same,MCV,[8]; [11],58.33 ± 2.78 fL
same,Mon,[8]; [11],3.17±1.01%
same,PLT,[8]; [11],1074.00±42.80 ×10^9/L
same,RBC,[8]; [11],6.13±0.08 ×10^12/L
same,WBC,[8]; [11],3.82±0.07 ×10^9/L
same,Gran,[8]; [12],23.53±2.25%
same,HCT,[8]; [12],34.30±2.17%
same,HGB,[8]; [12],142.33 ± 5.69 g/L
same,LYM,[8]; [12],74.13±1.53%
same,MCH,[8]; [12],17.93 ± 0.49 pg
same,MCHC,[8]; [12],336.00 ± 7.00 g/L
same,MCV,[8]; [12],56.03 ± 1.56 fL
same,Mon,[8]; [12],3.20±0.87%
same,PLT,[8]; [12],1077.00±42.58 ×10^9/L
same,RBC,[8]; [12],6.42±0.19 ×10^12/L
same,WBC,[8]; [12],3.80±0.14 ×10^9/L
same,ALT,[9]; [10],25.97±1.19 U/L
same,AST,[9]; [10],57.56±2.19 U/L
same,CR,[9]; [10],51.41 ± 4.33 µmol/L
same,ALT,[9]; [11],23.50±2.88 U/L
same,AST,[9]; [11],55.38±3.26 U/L
same,CR,[9]; [11],49.61 ± 6.54 µmol/L
same,ALT,[9]; [12],21.04±2.52 U/L
same,AST,[9]; [12],57.20±4.16 U/L
same,CR,[9]; [12],53.34 ± 7.72 µmol/L
